Assay [1] relates to mantle cell lymphoma (MCL) cell lines. The following applies: Eur. J. Med. Chem., 2014, 86, 664-675; cited from earlier work.
The next assay deals with T1, DDR2 wt (Homo sapiens, UniProt Q16832).
T1 construct: GST or His (not specified per kinase); purchased ProQinase (panel service); host or cells: Sf9 insect cells or E. coli
Briefly: radiometric protein kinase assay (33PanQinase Activity Assay). The class given is biochemical. The following applies: singlicate, read-out: residual activity. Here is the method:
(§1) In a first experiment, the kinase inhibition profile of the compound of formula (1) was evaluated at Proqinase (http://www.proqinase.com) by measuring residual activity values at a concentration of 10 µM of the test compound in singlicate in front of the following kinases: ABL2, EPHA3, CSF1-R, DDR2 wt, DDR2 N456 S, EGF-R d746-750, EGF-R d747-752/P753S, EGF-R G719C, EGF-R G719S, EGF-R L858R, EGF-R L861Q, EGF-R wt, EPHA1, EPHA2, EPHB1, ERBB4, LCK, MINK1, RAF1 Y340D/Y341D (untagged), RIPK2, STK17A. In a second experiment, the kinase inhibition profile of the compound of formula (1) was evaluated at Proqinase (http://www.proqinase.com) by measuring residual activity values at a concentration of 0.5 and 10 µM of the test compound in singlicate in front of a panel of 300 kinases using the following protocol:
(§2) The compounds were dissolved to 1 x 10^-03 M stock solutions in 100% DMSO. Subsequently, 100 µl of each stock solution were transferred into wells A3-F12 of a microtiter plate ("master plate"). Wells A1-F2 were filled with 100 µl 100% DMSO as controls. 5 x 10 µl of the master plate were aliquoted into 5 copy plates, which were stored at -20° Celsius until use. For the testing of each group of up to 8 kinases, one copy plate was used.
(§3) In the process, 90 µl H2O were added to each well of a copy plate. To minimize precipitation, the H2O was added to each well only a few minutes before the transfer of the compound solutions into the assay plates. The plate was shaken thoroughly, resulting in a "compound dilution plate" with a compound concentration of 1 x 10^-04 M/10 % DMSO. This plate was used for the transfer of 5 µl compound solution into the assay plates. The final volume of the assay was 50 µl. All compounds were tested at 1 x 10^-05 M in singlicate. The final DMSO concentration in the reaction cocktails was 1 % in all cases. The compound dilution plates were disposed at the end of each working day.
(§4) A radiometric protein kinase assay (^33PanQinase® Activity Assay) was used for measuring the kinase activity of the corresponding protein kinases. All kinase assays were performed in 96-well FlashPlatesTM from Perkin Elmer (Boston, MA, USA) in a 50 µl reaction volume. The reaction cocktail was pipetted in 4 steps in the following order: • 10 µl of non-radioactive ATP solution (in H2O) • 25 µl of assay buffer/ [γ-33P]-ATP mixture • 5 µl of test sample in 10% DMSO • 10 µl of enzyme/substrate mixture
(§5) The protein kinase reaction cocktails were incubated at 30°C for 60 minutes. The reaction was stopped with 50 µl of 2 % (v/v) H3PO4, plates were aspirated and washed two times with 200 µl 0.9 % (w/v) NaCl. All assays were performed with a BeckmanCoulter Biomek 2000/SL robotic system. Incorporation of ^33Pi (counting of "cpm") was determined with a microplate scintillation counter (Microbeta, Wallac).
(§6) All protein kinase assays were performed with a BeckmanCoulter Core robotic system.
(§7) All protein kinases provided by ProQinase were expressed in Sf9 insect cells or in E.coli as recombinant GST-fusion proteins or His-tagged proteins. All kinases were produced from human cDNAs and purified by either GSH-affinity chromatography or immobilized metal. Affinity tags were removed from a number of kinases during purification. The purity of the protein kinases was examined by SDS-PAGE/Coomassie staining, the identity was checked by mass spectroscopy.
(§8) Kinases from external vendors (CAR = Carna Biosciences Inc.; INV = Life Technologies (Invitrogen Corporation); MIL = Merck-Millipore (Millipore Corporation)) were expressed, purified and quality-controlled by virtue of the vendors readings.
(§9) For each kinase, the median value of the cpm of six wells of column 1 of each assay plate was defined as "low control" (n=6). This value reflects unspecific binding of radioactivity to the plate in the absence of a protein kinase but in the presence of the substrate. […]

A further assay deals with T2, EGF-R d746-750 (Homo sapiens, UniProt P00533, DEL746-750).
T2 construct: GST or His (not specified per kinase); purchased ProQinase (panel service); host or cells: Sf9 insect cells or E. coli
T2 sequence (P00533 with tags, fused parts or gaps DEL746-750 limits assumed): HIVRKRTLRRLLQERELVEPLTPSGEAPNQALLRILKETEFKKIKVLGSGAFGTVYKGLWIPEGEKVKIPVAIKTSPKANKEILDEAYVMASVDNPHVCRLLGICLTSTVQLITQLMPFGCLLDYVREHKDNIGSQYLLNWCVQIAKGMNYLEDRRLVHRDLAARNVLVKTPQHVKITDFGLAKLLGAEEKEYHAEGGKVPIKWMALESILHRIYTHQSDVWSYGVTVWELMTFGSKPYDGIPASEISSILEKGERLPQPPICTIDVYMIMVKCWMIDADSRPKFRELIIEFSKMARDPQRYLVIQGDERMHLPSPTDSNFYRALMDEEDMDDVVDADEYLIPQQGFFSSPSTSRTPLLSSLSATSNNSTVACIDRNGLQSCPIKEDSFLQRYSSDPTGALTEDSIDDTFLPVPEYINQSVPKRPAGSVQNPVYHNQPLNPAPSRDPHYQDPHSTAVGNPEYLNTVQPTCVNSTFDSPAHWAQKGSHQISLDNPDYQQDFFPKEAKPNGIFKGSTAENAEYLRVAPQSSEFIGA
The assay is described as above. The class given is biochemical. As to conditions: singlicate, read-out: residual activity. Here is the method: as §1, §2, §3, §4, §5, §6, §7, §8, §9

The target in the next assay is T3, EGF-R L861Q (Homo sapiens, UniProt P00533, L861Q).
T3 construct: GST or His (not specified per kinase); purchased ProQinase (panel service); host or cells: Sf9 insect cells or E. coli
T3 sequence (P00533 25-1210 L861Q): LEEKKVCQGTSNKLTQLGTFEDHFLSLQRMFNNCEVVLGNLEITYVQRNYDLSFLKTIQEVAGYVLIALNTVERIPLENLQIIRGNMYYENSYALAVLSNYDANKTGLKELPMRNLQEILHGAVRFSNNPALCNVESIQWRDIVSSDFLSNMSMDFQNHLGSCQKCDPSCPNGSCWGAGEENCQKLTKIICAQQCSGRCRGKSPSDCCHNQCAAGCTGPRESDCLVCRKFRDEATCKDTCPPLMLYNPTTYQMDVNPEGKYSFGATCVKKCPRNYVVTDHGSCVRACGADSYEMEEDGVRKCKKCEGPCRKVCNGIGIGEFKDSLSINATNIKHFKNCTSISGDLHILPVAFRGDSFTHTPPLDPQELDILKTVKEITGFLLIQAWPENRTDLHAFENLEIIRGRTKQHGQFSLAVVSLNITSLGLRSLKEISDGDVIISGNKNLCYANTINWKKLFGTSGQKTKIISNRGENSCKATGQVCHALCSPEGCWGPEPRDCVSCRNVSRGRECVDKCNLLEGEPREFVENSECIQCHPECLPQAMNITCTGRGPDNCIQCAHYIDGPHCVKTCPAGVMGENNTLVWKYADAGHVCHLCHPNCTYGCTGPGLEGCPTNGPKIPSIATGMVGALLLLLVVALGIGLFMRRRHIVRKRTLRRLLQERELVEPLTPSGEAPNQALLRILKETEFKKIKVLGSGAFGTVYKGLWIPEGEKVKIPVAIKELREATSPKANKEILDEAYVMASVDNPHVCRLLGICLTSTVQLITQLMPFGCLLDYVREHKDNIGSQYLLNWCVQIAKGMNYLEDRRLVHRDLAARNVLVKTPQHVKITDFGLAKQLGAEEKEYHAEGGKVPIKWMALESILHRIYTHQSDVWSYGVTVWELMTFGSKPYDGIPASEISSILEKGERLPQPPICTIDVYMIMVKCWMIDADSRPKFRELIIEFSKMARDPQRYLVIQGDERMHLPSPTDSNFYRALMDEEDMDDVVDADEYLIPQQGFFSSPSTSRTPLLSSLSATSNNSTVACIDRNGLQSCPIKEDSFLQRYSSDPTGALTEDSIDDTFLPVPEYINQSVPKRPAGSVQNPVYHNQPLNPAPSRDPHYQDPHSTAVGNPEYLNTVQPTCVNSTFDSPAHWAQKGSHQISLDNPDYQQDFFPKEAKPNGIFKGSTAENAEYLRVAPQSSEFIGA
The description is as above. The assay is classed as biochemical. The following applies: singlicate, read-out: residual activity. On the procedure:
as §1, §2, §3, §4, §5, §6, §7, §8, §9

A further assay has as its target T4, EPHB1 (Homo sapiens, UniProt P54762).
T4 construct: GST or His (not specified per kinase); purchased ProQinase (panel service); host or cells: Sf9 insect cells or E. coli
The assay is described as above. The class given is biochemical. The following applies: singlicate, read-out: residual activity. Here is the method:
as §1, §2, §3, §4, §5, §6, §7, §8, §9

These results are taken from EP3120851A1, “4-AMINO-6-(2,6-DICHLOROPHENYL)-8-METHYL-2-(PHENYLAMINO)-PYRIDO[2,3-D]PYRIMIDIN-7(8H)-ONE FOR TREATMENT OF SOLID CANCERS” (Pangaea Biotech S.L., priority 2015, dated 2017).

T1 sequence (Q16832 22-855): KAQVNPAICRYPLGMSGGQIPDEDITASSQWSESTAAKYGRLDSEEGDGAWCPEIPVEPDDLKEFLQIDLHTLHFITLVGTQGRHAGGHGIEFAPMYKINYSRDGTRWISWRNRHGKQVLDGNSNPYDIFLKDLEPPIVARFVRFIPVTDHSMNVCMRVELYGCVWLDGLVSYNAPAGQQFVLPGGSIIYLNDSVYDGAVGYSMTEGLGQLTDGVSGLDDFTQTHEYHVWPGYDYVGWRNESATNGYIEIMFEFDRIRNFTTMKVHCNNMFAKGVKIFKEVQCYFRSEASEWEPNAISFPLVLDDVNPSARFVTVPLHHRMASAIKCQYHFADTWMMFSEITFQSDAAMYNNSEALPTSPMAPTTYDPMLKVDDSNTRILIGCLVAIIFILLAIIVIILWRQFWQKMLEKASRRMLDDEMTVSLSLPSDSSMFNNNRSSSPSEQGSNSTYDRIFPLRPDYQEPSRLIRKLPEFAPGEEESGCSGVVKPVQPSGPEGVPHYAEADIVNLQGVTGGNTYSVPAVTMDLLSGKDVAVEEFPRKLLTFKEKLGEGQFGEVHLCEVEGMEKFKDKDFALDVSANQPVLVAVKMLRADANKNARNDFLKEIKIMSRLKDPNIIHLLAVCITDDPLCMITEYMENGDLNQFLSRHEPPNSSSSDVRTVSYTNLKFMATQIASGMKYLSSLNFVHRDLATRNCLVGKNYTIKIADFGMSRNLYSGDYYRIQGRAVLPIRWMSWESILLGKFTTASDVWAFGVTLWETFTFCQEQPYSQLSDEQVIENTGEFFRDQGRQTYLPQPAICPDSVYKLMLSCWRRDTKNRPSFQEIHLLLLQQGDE
T4 sequence (P54762 18-984): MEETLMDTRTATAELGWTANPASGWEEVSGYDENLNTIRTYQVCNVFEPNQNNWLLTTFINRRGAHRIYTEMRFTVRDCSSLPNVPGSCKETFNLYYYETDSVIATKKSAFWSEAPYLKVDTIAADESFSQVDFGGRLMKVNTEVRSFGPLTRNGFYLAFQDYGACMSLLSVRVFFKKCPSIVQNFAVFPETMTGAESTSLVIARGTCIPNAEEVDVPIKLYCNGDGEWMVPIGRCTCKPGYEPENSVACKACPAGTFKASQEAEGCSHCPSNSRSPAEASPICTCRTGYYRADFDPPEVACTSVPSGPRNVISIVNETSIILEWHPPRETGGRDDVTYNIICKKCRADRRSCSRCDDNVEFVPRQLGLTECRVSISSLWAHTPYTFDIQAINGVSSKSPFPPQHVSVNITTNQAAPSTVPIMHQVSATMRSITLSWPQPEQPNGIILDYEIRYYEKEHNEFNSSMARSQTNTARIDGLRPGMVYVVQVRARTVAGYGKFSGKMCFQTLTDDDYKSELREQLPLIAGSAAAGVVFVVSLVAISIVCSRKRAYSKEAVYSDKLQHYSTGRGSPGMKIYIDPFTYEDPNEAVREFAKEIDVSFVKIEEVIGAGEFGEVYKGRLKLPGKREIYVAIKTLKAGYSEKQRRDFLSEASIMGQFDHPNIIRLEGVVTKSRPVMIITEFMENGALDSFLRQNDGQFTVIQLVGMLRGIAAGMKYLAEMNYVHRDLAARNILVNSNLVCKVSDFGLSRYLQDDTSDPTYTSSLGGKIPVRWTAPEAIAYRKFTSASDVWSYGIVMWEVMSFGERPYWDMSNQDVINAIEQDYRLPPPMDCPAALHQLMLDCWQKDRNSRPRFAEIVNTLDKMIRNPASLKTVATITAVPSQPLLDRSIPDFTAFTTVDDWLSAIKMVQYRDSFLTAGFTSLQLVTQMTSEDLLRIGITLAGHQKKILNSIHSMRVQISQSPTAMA

On to `Cn1c(=O)c(-c2c(Cl)cccc2Cl)cc2c(N)nc(Nc3ccccc3)nc21` [Compound (1), 4-amino-6-(2,6-dichlorophenyl)-8-methyl-2-(phenylamino)-pyrido[2,3-d]pyrimidin-7(8H)-one], for which the cytostatic activity result in assay [1] is recorded as “good cytostatic activity”. For the same molecule, the remaining activity at 0.5 µM on DDR2 wt (0.5 µM test compound) came to 10%; on EGF-R d746-750 (0.5 µM test compound) it was 28%; on EGF-R L861Q (0.5 µM test compound) it was 36%; at EPHB1 (0.5 µM test compound), 57%. In addition, the remaining activity at 10 µM at DDR2 wt (10 µM test compound) was 4%; at EGF-R d746-750 (10 µM test compound), 10%; at EGF-R L861Q (10 µM test compound) it was 8%; on EPHB1 (10 µM test compound), 5%.
